Source: ChEMBL document CHEMBL1144475, “Design, synthesis, and evaluation of inhibitors for severe acute respiratory syndrome 3C-like protease based on phthalhydrazide ketones or heteroaromatic esters” (J Med Chem, 2007)
Non-standard residues stand in square brackets, D forms with d. Residues, ends and D or L forms follow the SMILES beside them. *: point of attachment. Ala(2-oxopyrrolidin-3S-yl) = N[C@@H](C[C@@H]1CCNC1=O)C(=O)O; X1 = Clc1cncc(O*)c1; Bn = c1ccc(C*)cc1

Legend:
[1] = target: Replicase polyprotein 1a (Severe acute respiratory syndrome-related coronavirus) (UniProt P0C6U8); test: Inhibition of SARS coronavirus 3C-like protease at 1 uM
Replicase polyprotein 1a = Replicase polyprotein 1a (Severe acute respiratory syndrome-related coronavirus, UniProt P0C6U8); test: Inhibition of SARS coronavirus 3C-like protease
[2] = target: Replicase polyprotein 1a (Severe acute respiratory syndrome-related coronavirus) (UniProt P0C6U8); test: Inhibition of SARS coronavirus His-3C-like protease at 100 uM

Row | Structure (SMILES) | inhibition [1] [%] | IC50 (Replicase polyprotein 1a) [nM] | inhibition [2] [%]
1 | O=C(Oc1cncc(Cl)c1)c1cc2ccccc2s1 | 96 | 95 | 
2 | Cc1cccc(OC(=O)c2cccs2)n1 |  |  | 38
3 | O=C(Oc1cccnc1)c1cccs1 |  |  | 91
4 | Cc1ccc(OC(=O)c2cccs2)nc1 |  |  | < 10
5 | Cc1ccc(OC(=O)c2cccs2)c([N+](=O)[O-])n1 |  |  | 15
6 | O=S(=O)(Nc1cccnc1)c1cccs1 |  |  | < 10
7 | COc1cccc(C(=O)Oc2cncc(Cl)c2)c1 | 97 |  | 
8 | O=C(Oc1cncc(Cl)c1)c1cc2ccccc2o1 |  | 170 | 94
9 | O=C(Oc1cccc(Cl)c1)c1ccco1 |  |  | 40
10 | O=C(Oc1cccc(Cl)n1)c1cccs1 |  |  | < 10
11 | O=C(Oc1cncc(Cl)c1)c1ccco1 |  | 60 | 99
12 | Cc1ccc(OC(=O)c2cccs2)cn1 |  |  | < 10
13 | O=C(Oc1ccccn1)c1cccs1 |  |  | 13
14 | O=Cc1ccco1 |  |  | 23
15 | Cc1ncccc1OC(=O)c1cccs1 |  |  | < 10
16 | O=C(OCc1cncc(Br)c1)c1ccco1 |  |  | 90
17 | O=C(Nc1ccncc1)c1cccs1 |  |  | < 10
18 | O=C(Oc1cncc(Cl)c1)c1ccc[nH]1 |  |  | 65
19 | O=C(Nc1ccc(F)cn1)c1cccs1 |  |  | < 10
20 | O=C(Nc1ccccn1)c1cccs1 |  |  | < 10
21 | CC(=O)N[C@H](C(=O)N[C@H](C(=O)N[C@@H](CC(C)C)C(=O)N[C@@H](C[C@@H]1CCNC1=O)C(=O)c1cccs1)[C@@H](C)OCc1ccccc1)C(C)C |  |  | < 10
22 | O=C(Oc1ccco1)c1cccnc1 |  |  | 80
23 | O=C(Oc1ccncc1)c1cccs1 |  |  | < 10

Row | Structure (SMILES) | inhibition [1] [%] | IC50 (Replicase polyprotein 1a) [nM] | inhibition [2] [%]
24 | O=C(Oc1cncc(Br)c1)c1ccco1 | 98 | 50 | 99
25 | O=C(Oc1cncc(Cl)c1)c1ccoc1 |  |  | 89
26 | CC(=O)N[C@H](C(=O)N[C@H](C(=O)N[C@@H](CC(C)C)C(=O)N[C@@H](Cc1ccccc1)C(=O)Cn1[nH]c(=O)c2ccccc2c1=O)[C@@H](C)OCc1ccccc1)C(C)C |  |  | 72
27 | O=C(Nc1cccnc1Cl)c1cccs1 |  |  | < 10
28 | O=Cc1cc2ccccc2[nH]1 |  |  | 39
29 | O=C(Cc1cccnc1)c1cccs1 |  |  | < 10
30 | O=C(Nc1cccnc1)c1cccs1 |  |  | 13
31 | O=C(Oc1cncc(Cl)c1)c1cc2ccccc2[nH]1 | 99 | 65 | 
32 | O=C(Oc1cccnc1Cl)c1cccs1 |  |  | 20
33 | O=C(Nc1ccc(Cl)cn1)c1cccs1 |  |  | < 10
34 | CC(=O)N[C@H](C(=O)N[C@H](C(=O)N[C@@H](CC(C)C)C(=O)N[C@@H](C[C@@H]1CCNC1=O)C(=O)Oc1cncc(Cl)c1)[C@@H](C)OCc1ccccc1)C(C)C (Ac-VT(Bn)L[Ala(2-oxopyrrolidin-3S-yl)]-X1) |  |  | < 10
35 | O=Cc1ccc(-c2ccc(Cl)cc2)o1 |  |  | 70
36 | O=Cc1cccs1 |  |  | < 10
37 | O=C(Oc1ccc(Cl)nc1)c1cccs1 |  |  | 13
38 | O=C(Cc1cncc(Br)c1)c1ccco1 |  |  | < 10
39 | O=C(Oc1cncc(Cl)c1)c1ccccc1 |  |  | 92
40 | O=C(Oc1cncc(Cl)c1)c1cscn1 | 98 | 270 | 
41 | O=Cc1cscn1 |  |  | 36
42 | Clc1cncc(OCc2ccco2)c1 |  |  | 11
43 | O=C(OCc1cccnc1)c1cccs1 |  |  | 19
44 | CC(=O)N[C@H](C(=O)N[C@H](C(=O)N[C@@H](CC(C)C)C(=O)N[C@@H](C[C@@H]1CCNC1=O)C(=O)c1cccs1)[C@@H](C)O)C(C)C |  |  | 23
45 | O=C(Oc1cncc(Cl)c1)c1ccc(-c2ccc(Cl)cc2)o1 | 98 | 63 | 
